Laboratory results as given in article PMC8880129, “Plant- and Bacteria-Derived Compounds with Anti-Philasterides dicentrarchi Activity” (Pathogens, 2022).
Where two headings read alike, the source gives them in different places.

Assays:
[1] = test system: Philasterides dicentrarchi; assay: microbe, parasite or virus in culture; details: for mortality at 100 µM / inhibition at 100 µM / GI50: Philasterides dicentrarchi; for mortality at 100 µM / Ciliate Mortality 3 h (%): 3 h; for Ciliate Mortality 3 h (%) / Growth Inhibition 24 h (%) / parasites killed after 24 h: 100 μM, culture medium; for Ciliate Mortality 3 h (%) / Growth Inhibition 24 h (%): mean ± SD of three replicates
Protocol: P. dicentrarchi (isolate I1), obtained from an outbreak of scuticociliatosis in cultured turbot in Galicia, was routinely cultured at 18 °C in complete sterile L15 medium (Leibovitz, PAA Laboratories GmbH, 1% salinity, pH 7.2) containing 90 mg/L each of adenosine, cytidine, and uridine, 150 mg/L of guanosine, 5 g/L of glucose, 400 mg/L of L-α-phosphatidylcholine, 200 mg/L of Tween 80, 10% of heat-inactivated foetal bovine serum (FBS), and 10 mL/L of 100X antibiotic–antimycotic solution (100 units/mL of penicillin G, 0.1 mg/mL of streptomycin sulphate and 0.25 mg/mL of amphotericin B), as previously described. Alternatively, ciliates were cultured in seawater with autoclaved marine bacteria (10^6 cells/mL) supplied as food at 21 °C. The ciliates were cultured under normoxic conditions in tissue culture flasks fitted with vented caps that enabled aeration of the culture medium.
We tested the toxicity to P. dicentrarchi of 26 compounds of natural origin (Table 1). The compounds were prepared in 10 mM stock solutions in dimethyl sulfoxide (DMSO) and maintained at −20 °C until use. In addition, the Pseudomonas H6 lipopeptide surfactant (PS) was prepared, lyophilised and stored at −20 °C [37]. A stock solution of PS was prepared in distilled water (1000 ppm) and diluted in culture medium or seawater at the final concentrations used in each assay and sterile filtered (through 0.2 µm filters) before being added to the parasites or EPC cells.
The anticiliate activity was assayed as previously described, with minor modifications. Ciliates were concentrated by centrifugation at 650× g for 5 min and resuspended in a medium at the concentration required for the assays. All experiments were carried out in triplicate. Wells containing ciliates in a culture medium or seawater without the test compounds were assayed as negative controls. To rule out any possible effects of the solvent (DMSO), triplicate wells with a culture medium or seawater containing the highest concentration of DMSO used (up to 1%) were also included. […] In these assays, the compounds were diluted in 1 mL of culture medium or seawater and added to the wells of 24-well sterile culture plates containing 2.5 × 10^4 ciliates per well, at final concentrations of […], 6.25, 12.5, 25, 50, and 100 µM in culture medium. The effects of the compounds on the motility and morphology of the ciliates were monitored periodically (at 30 min, 1, 2, 3, 24, and 48 h) under an inverted optical microscope. Ciliates were considered dead when they lysed and were not motile. The results obtained are expressed as percentage mortality for each experimental group. To estimate the total number of ciliates per well, the ciliates were inactivated by adding 0.25% glutaraldehyde and counted in a haemocytometer under an optical microscope. The lowest dose of the selected compounds resulting in 100% ciliate mortality (LC100) was assessed at 1, 2, and 3 h after incubation of parasites with sample dilutions (from 0 to 100 μg/mL, in 10 μg intervals). The concentration that inhibited 50% of ciliate growth (GI50), in comparison with the control group, was calculated with Excel software (Microsoft Office; Microsoft, Redmond, WA, USA) by plotting the dose-response data (log dose-per cent of growth inhibition) and applying linear regression (y = mx + b) for data fitting. The values were then calculated from the equation log GI50 = (50 − b)/m, where m is the slope y1 − y2/x1 − x2, and b is the intercept of the line.

P. dicentrarchi = test system: P. dicentrarchi; parameters: method as in PMID 15212284, PMID 21987103, PMID 27334368; details: cited from earlier work
[2] = test system: Philasterides dicentrarchi; assay: Anticiliate activity, ciliates maintained in seawater (LC100, LC50); format: cell-based; details: 3 h incubation
Protocol: All experiments were carried out in triplicate.

EPC cells = assay: Toxicity to EPC cell line, MTT assay; format: cell-based, fish; details: 24 h incubation, compound at its GI50 (24 h)
Protocol: (§1) We used the Epithelioma Papulosum Cyprini (EPC) cell line, acquired from the American Type Culture Collection (ATCC®, Manassas, VA, USA), as a control for toxicity. The cell line, kindly provided by Doctors Pereira-Dopazo and Bandin from the Aquaculture Institute of the University of Santiago de Coompostela, was cultured in MEM medium equilibrated with Hanks’ balanced salts (Gibco, Thermo Fischer Sci., Waltham, MA, USA) supplemented with 10% foetal bovine serum and 10 mL/L of 100X antibiotic–antimycotic solution. Cells were maintained subconfluent at 25 °C in a cell culture incubator and used when the confluence reached 75%.
(§2) Cell viability was then estimated by the MTT (3-(4,5-dimethylthiazol-2-yl)-2,5-diphenyl tetrazolium bromide) assay, as previously described, with minor modifications. Briefly, 100 μL of the MTT solution (1 mg/mL in phosphate-buffered saline; pH 7.2) was added to each well, and plates were incubated at 25 °C for 4 h. The yellow tetrazolium salt of MTT is reduced by mitochondrial dehydrogenases in metabolically active cells to form insoluble purple formazan crystals, which are then dissolved by the addition of DMSO (50 μL/well). Prior to the addition of MTT or DMSO, the plates were washed, and the supernatant was removed. The absorbance was measured at 540 nm in a microplate reader (Multiskan™, Thermo Fischer Sci., Waltham, MA, USA), and the relative cell viability was expressed as the mean percentage of viable cells relative to untreated cells.
(§3) In the viability assay, the possible effect of DMSO was evaluated for each compound by the inclusion of three replicate wells with MEM medium and the same DMSO concentration as in the medium. […] Control cells with only MEM were also included in the assay.

[3] = Toxicity to EPC cell line, MTT assay; format: cell-based, fish; details: fish
Protocol: as §1, §2, §3

[4] = read-out: Ciliate Mortality 3 h (%), 100 μM, 3 h, culture medium, mean ± SD of three replicates
[5] = 24 h, read-out: Growth Inhibition 24 h (%), 100 μM, 24 h, culture medium, mean ± SD of three replicates
[6] = 24 h, read-out: GI50 24 h (compound concentration that inhibited 50% of parasite growth)
[7] = 48 h, read-out: GI50 48 h (compound concentration that inhibited 50% of parasite growth)

Compound	mortality at 100 µM [1, 4] [%]	inhibition at 100 µM [1, 5] [%]	Growth Inhibition 24 h (%) ([1]; 24 h)	further results
C=CCSCC=C [Diallyl sulfide]	22.3 ± 5.1	38.8 ± 7.32	–	–
CC(O)C(=O)[O-].[Na+] (centres unmarked) [Sodium lactate]	–	–	28.33 ± 3.93	Ciliate Mortality 3 h (%) [1]: 13.76 ± 4.1%
COc1cc(/C=C/C(=O)CC(=O)/C=C/c2ccc(O)c(OC)c2)ccc1O [curcumin]	–	–	–	efficacy against P. dicentrarchi (P. dicentrarchi): effective
C[C@@H]1CC[C@H]2C(C)(C)[C@H]3C[C@@]12CC[C@@]3(C)O [Cedrol]	64.2 ± 3.7	66.67 ± 0.33	–	–
CC1=NCCc2c1[nH]c1cc(O)ccc21.Cl.O.O [Harmalol hydrochloride dihydrate]	–	–	40.08 ± 4.9	Ciliate Mortality 3 h (%) [1]: 4.8 ± 1.12%
COc1cc2c(cc1OC)-c1cc3ccc(OC)c(OC)c3c[n+]1CC2 [Palmatine chloride]	6.8 ± 0.59	28.5 ± 4.25	–	–
OCCc1ccccc1 [Phenylethyl alcohol]	2.3 ± 1.4	30.1 ± 4.63	–	–
O=C(O)c1ccccc1 [Benzoic acid]	–	–	–	mortality at 100 µM ([1]; read-out: Ciliate Mortality 3 h (%)): 1.64 ± 0.56%; inhibition at 100 µM ([1]; 24 h, read-out: Growth Inhibition 24 h (%)): 17.4 ± 1.2%
CC(=O)c1c(O)c(C)c(O)c2c1OC1=CC(=O)C(C(C)=O)C(=O)C12C (centres unmarked) [Usnic acid]	38.3 ± 5.52	68.3 ± 3.34	–	–
O=C(O)CCCC[C@@H]1SC[C@@H]2NC(=O)N[C@@H]21 [Biotin]	0	37 ± 0.72	–	–
O=C(/C=C/c1ccccc1)c1ccc(O)cc1O [2′,4′-dihydroxychalcone]	> 90	100	–	Ciliate Mortality 3 h (%) [1]: 99 ± 0.71%; parasites killed after 24 h ([1]; 24 h): killed all the parasites; GI50 [1, 6]: 7.54 ± 1.31 µM; GI50 [1, 7]: 5.68 ± 0.16 µM; LC100 (lowest concentration resulting in 100% ciliate mortality) [2]: 70 µM; EPC cells killed (EPC cells): about 10%; viability at 3 h [3]: 92 ± 2.5%; viability at 24 h [3]: 89.7 ± 1.4%
CC12CCC(CC1)C(C)(C)O2 [Eucalyptol]	17 ± 8.42	35.6 ± 4.21	–	–
O=C(O[C@@H]1Cc2c(O)cc(O)cc2O[C@@H]1c1cc(O)c(O)c(O)c1)c1cc(O)c(O)c(O)c1 [epigallocatechin gallate]	–	–	–	efficacy against P. dicentrarchi (P. dicentrarchi): effective
CCCCOC(=O)c1ccc(O)cc1 [Butyl 4-hydroxybenzoate]	52.9 ± 2.39	> 80	80.65 ± 2.42	GI50 [1, 6]: 43.9 ± 6.6 µM; GI50 [1, 7]: 29.2 ± 0.35 µM
O=c1c2cc(O)c(O)cc2oc2cc(O)c([C@@H]3O[C@H](CO)[C@@H](O)[C@H](O)[C@H]3O)c(O)c12 [mangiferin]	–	–	–	efficacy against P. dicentrarchi (P. dicentrarchi): effective
O=C(/C=C/c1ccc(O)c(O)c1)O[C@H](Cc1ccc(O)c(O)c1)C(=O)O [Rosmarinic acid]	27.1 ± 7.27	35 ± 5.51	–	–
C[C@H]1C(=O)O[C@@H]2CCN3CC=C(COC(=O)[C@](C)(O)[C@]1(C)O)[C@H]23 [Monocrolatine]	–	–	9.8 ± 2.11	Ciliate Mortality 3 h (%) [1]: 6.61 ± 1.06%
O=c1cc(-c2ccccc2)oc2cc(O)ccc12 [7-hydroxyflavone]	10 ± 1.52	67.4 ± 2.4	–	–
CC12CCC(CC1=O)C2(C)C (centres unmarked) [Camphor (1r)]	–	–	77.42 ± 2.7	Ciliate Mortality 3 h (%) [1]: 0%
O=c1ccc2ccccc2o1 [Coumarin]	8 ± 5.9	23.5 ± 4.12	–	–
CC1(C)CCC[C@]2(C)[C@H]3CC(=O)O[C@]3(C)CC[C@@H]12 [Sclareolide]	–	–	71.67 ± 6.92	–
C[C@H]1[C@H]2CC[C@H]3[C@@H]4CC=C5C[C@@H](N(C)C)CC[C@]5(C)[C@H]4CC[C@]23CN1C [Conessine]	50.2 ± 4.5	> 80	84.42 ± 2.42	GI50 [1, 6]: 12 ± 0.8 µM; GI50 [1, 7]: 11.2 ± 0.65 µM
O=C(/C=C/C=C/c1ccc2c(c1)OCO2)N1CCCCC1 [Piperine]	42.6 ± 9.1	> 80	89.04 ± 3.37	GI50 [1, 6]: 60.7 ± 6.31 µM; GI50 [1, 7]: 44 ± 1.83 µM
CCCCCCc1ccc(O)cc1O [4-hexylresorcinol]	> 90	100	–	Ciliate Mortality 3 h (%) [1]: 95.3 ± 4.05%; parasites killed after 24 h ([1]; 24 h): killed all the parasites; GI50 [1, 6]: 63.3 ± 3.61 µM; GI50 [1, 7]: 40.8 ± 0.11 µM
O=c1ccc2cc(O)c(O)cc2o1 [Esculetin]	8.2 ± 5.32	15.3 ± 6.32	–	–
Garlicin [Garlicin 80%]	–	–	42.47 ± 5.62	–
O=c1ccc2ccc(O)cc2o1 [Umbelliferone]	2.9 ± 1.89	44.9 ± 7.23	–	–
Oc1ccc(/C=C/c2cc(O)cc(O)c2)cc1 [resveratrol]	–	–	–	efficacy against P. dicentrarchi (P. dicentrarchi): effective
